Measured values taken from article PMC10197776 (Research Square, 2023).

Assays:
SARS-CoV-2 = system: SARS-CoV-2; design: method as in PMID 35352927; conditions: TMPRSS2 VeroE6 model of SARS-CoV-2 infection; read-out: EC50 (antiviral); cited from earlier work
SARS-CoV2 = system: SARS-CoV2; design: method as in PMID 33786375, PMID 34161756; conditions: SARS-CoV2 plaque reduction assay; read-out: antiviral EC50; cited from earlier work
[1] = Intrinsic clearance in human microsomes; type: in vitro ADME
SARS-CoV-2 3CL^pro = SARS-CoV-2 3CL^pro (Severe acute respiratory syndrome coronavirus 2, UniProt P0DTD1); test: biochemical; type: biochemical; conditions: for IC50: SARS-CoV-2 3CLpro
[2] = Intrinsic clearance in human S9 fractions; type: in vitro ADME

In the case of `Cn1cnc(Cn2c(=O)[nH]/c(=N\c3cc4cn(C)nc4cc3Cl)n(Cc3cc(F)c(F)cc3F)c2=O)n1` [compound 2, Ensitrelvir], the EC50 (SARS-CoV-2) is given as 370 nM.
For `N#Cc1ccccc1-c1cc(-c2cc(Cl)cc(OCC3CC3)c2)c(=O)n(-c2cccnc2)c1` [compound 3], the EC50 (SARS-CoV2) is given as 980 nM.
For `O=C(Cc1cccnc1)N(Cc1cccc(Cl)c1)c1ccc(-c2cn[nH]c2)cc1` [compound 7], the “reduction in intrinsic clearance metabolism versus 6” value [1] was “two-fold reduction”, the IC50 (SARS-CoV-2 3CL^pro) was 1270 nM and the “LE (ligand efficiency)” value (SARS-CoV-2 3CL^pro; from 3CLpro IC50) was 0.27. For the same compound, the “reduction in intrinsic clearance metabolism versus 6” value [2] was “two-fold reduction”.
For `O=C(Cc1cncc2ccccc12)N(Cc1cc(F)cc(Cl)c1)c1ccc(-c2c[nH]cn2)cc1` [compound 27], the “fold improvement in IC50 compared to monocyclic pyridine 19” value (SARS-CoV-2 3CL^pro; IC50 ratio vs 19) was greater than 6 fold, the IC50 (SARS-CoV-2 3CL^pro) was 26 nM and the LipE (SARS-CoV-2 3CL^pro; from 3CLpro IC50 and calculated properties) was 2.24.
